Source: PubChem BioAssay (NCI)
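Cells were grown in 96-well plates and exposed to each compound for 48 hours at five concentrations; endpoints were interpolated linearly between bracketing concentrations, or set to the highest concentration if not reached. TGI marks complete inhibition of growth.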

How the values were obtained:
Assay in all cases: growth of human tumour cells (NCI), 48 h
MOLT-4 leukemia = tested on: MOLT-4 leukemia
U251 CNS = tested on: U251 CNS
OVCAR-8 ovarian = tested on: OVCAR-8 ovarian
IGROV1 ovarian = tested on: IGROV1 ovarian
OVCAR-4 ovarian = tested on: OVCAR-4 ovarian
SK-OV-3 ovarian = tested on: SK-OV-3 ovarian
DMS 273 small cell lung = tested on: DMS 273 small cell lung
SF-268 CNS = tested on: SF-268 CNS
COLO 205 colon = tested on: COLO 205 colon
NCI-H23 lung = tested on: NCI-H23 lung
HL-60(TB) leukemia = tested on: HL-60(TB) leukemia
HOP-18 NSCLC = tested on: HOP-18 NSCLC
SK-MEL-28 melanoma = tested on: SK-MEL-28 melanoma
HCC-2998 colon = tested on: HCC-2998 colon
TK-10 renal = tested on: TK-10 renal
HOP-62 NSCLC = tested on: HOP-62 NSCLC
A549 NSCLC = tested on: A549 NSCLC
EKVX NSCLC = tested on: EKVX NSCLC
M14 melanoma = tested on: M14 melanoma
XF 498 CNS = tested on: XF 498 CNS
SNB-19 CNS = tested on: SNB-19 CNS
UACC-257 melanoma = tested on: UACC-257 melanoma
OVCAR-5 ovarian = tested on: OVCAR-5 ovarian
MALME-3M melanoma = tested on: MALME-3M melanoma
SNB-75 CNS = tested on: SNB-75 CNS
786-0 renal = tested on: 786-0 renal
SK-MEL-2 melanoma = tested on: SK-MEL-2 melanoma
HCT-15 colon = tested on: HCT-15 colon
RXF 393 renal = tested on: RXF 393 renal
CAKI-1 renal = tested on: CAKI-1 renal
KM12 colon = tested on: KM12 colon
SW-620 colon = tested on: SW-620 colon
HT29 colon = tested on: HT29 colon
NCI-H522 lung = tested on: NCI-H522 lung
NCI-H460 lung = tested on: NCI-H460 lung
SF-539 CNS = tested on: SF-539 CNS
RPMI-8226 leukemia = tested on: RPMI-8226 leukemia
KM20L2 colon = tested on: KM20L2 colon
M19-MEL melanoma = tested on: M19-MEL melanoma
SF-295 CNS = tested on: SF-295 CNS
LOX IMVI melanoma = tested on: LOX IMVI melanoma
DMS 114 small cell lung = tested on: DMS 114 small cell lung
UACC-62 melanoma = tested on: UACC-62 melanoma
LXFL 529 NSCLC = tested on: LXFL 529 NSCLC
SK-MEL-5 melanoma = tested on: SK-MEL-5 melanoma
UO-31 renal = tested on: UO-31 renal
ACHN renal = tested on: ACHN renal
DLD-1 colon = tested on: DLD-1 colon
OVCAR-3 ovarian = tested on: OVCAR-3 ovarian
K-562 leukemia = tested on: K-562 leukemia
CCRF-CEM leukemia = tested on: CCRF-CEM leukemia
NCI-H226 lung = tested on: NCI-H226 lung
SN12C renal = tested on: SN12C renal

Measured: TGI

COC(=O)N/N=C(/CCC(=O)Nc1ccc(C)c(C)c1)CC(=O)C(C)(C)C
> 100 µM: all assays above
